Data from ChEMBL document CHEMBL1201862, “PubChem BioAssay data set” (2004).
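In this assay, cells in 96-well plates receive the compound at five concentrations for 48 hours. Endpoints are linearly interpolated between the surrounding concentrations. GI50 = concentration required for 50% inhibition of growth.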 Activity calls are given as the source filed them. Cut-off read from the data, not from the text of the source: active = GI50 up to about 1.1 µM and inactive = higher.

Columns and labels:
Assay in all cases: NCI tumour cell line growth inhibition, 48 h
OVCAR-8 = system: OVCAR-8
OVCAR-5 = system: OVCAR-5
HCC 2998 = system: HCC 2998
IGROV-1 = system: IGROV-1
SF-539 = system: SF-539
HCT-15 = system: HCT-15
SF-268 = system: SF-268
ACHN = system: ACHN
UACC-257 = system: UACC-257
786-0 = system: 786-0
MOLT-4 = system: MOLT-4
HOP-92 = system: HOP-92
CAKI-1 = system: CAKI-1
NCI-H522 = system: NCI-H522
SK-OV-3 = system: SK-OV-3

Row | SMILES | GI50 (OVCAR-8) | GI50 (OVCAR-5) | GI50 (HCC 2998) | GI50 (IGROV-1) | GI50 (SF-539) | GI50 (HCT-15) | GI50 (SF-268) | GI50 (ACHN) | GI50 (UACC-257) | GI50 (786-0) | GI50 (MOLT-4) | GI50 (HOP-92) | GI50 (CAKI-1) | GI50 (NCI-H522) | GI50 (SK-OV-3)
1 | C/C(CCn1[nH]c(=O)ccc1=O)=N\N=C(N)N | > 100 µM (inactive) | > 100 µM (inactive) | > 100 µM (inactive) | > 100 µM (inactive) | > 100 µM (inactive) | > 100 µM | > 100 µM (inactive) | > 100 µM (inactive) | > 100 µM (inactive) | > 100 µM (inactive) | > 100 µM (inactive) | > 100 µM (inactive) | > 100 µM (inactive) |  | 
2 | NC1=C(NC(=O)Cc2ccccc2F)C(=O)c2ccccc2C1=O | 39.2 µM (inactive) |  | > 100 µM (inactive) | 38.8 µM (inactive) | 26.9 µM (inactive) | 24.2 µM | 34.6 µM (inactive) | 76.9 µM (inactive) | 29.6 µM (inactive) | 27.1 µM (inactive) | > 100 µM (inactive) | 22.3 µM (inactive) | > 100 µM (inactive) | 21.6 µM (inactive) | 
3 | O=C1OC(c2ccccc2)=N/C1=C\c1ccc(Oc2ccc(Cl)c(Cl)c2)cc1 | 21.2 µM (inactive) | > 100 µM (inactive) | 50 µM (inactive) | > 100 µM (inactive) | 24.2 µM (inactive) | 43.2 µM | 23.1 µM (inactive) | 63.1 µM (inactive) | > 100 µM (inactive) | 29.9 µM (inactive) | 20.7 µM (inactive) | 55 µM (inactive) |  | 30.1 µM (inactive) | 
4 | CC(C)CCCC(C)C1CCC2C3CC([N+](=O)[O-])=C4CC(O)CCC4(C)C3CCC12C (stereo not drawn) | 21.7 µM (inactive) |  | 20.2 µM (inactive) | 23.8 µM (inactive) | 11.5 µM (inactive) | 17.3 µM | 24.3 µM (inactive) | 43.4 µM (inactive) | 10.8 µM (inactive) | 16.9 µM (inactive) | 24.2 µM (inactive) | 23.3 µM (inactive) | 24.1 µM (inactive) | 17.5 µM (inactive) | 
5 | COc1cc(C=O)c(-c2c(C=O)ccc3c2OCO3)c(OC)c1OC | > 100 µM (inactive) | > 100 µM (inactive) | > 100 µM (inactive) | > 100 µM (inactive) | > 100 µM (inactive) | 80.4 µM | 89.3 µM (inactive) | > 100 µM (inactive) | > 100 µM (inactive) | > 100 µM (inactive) | 76.2 µM (inactive) |  | 31.9 µM (inactive) | 88.5 µM (inactive) | > 100 µM (inactive)
6 | O=C(c1ccccc1)C(C(=O)c1ccccc1)C1(O)C(=O)c2ccccc2C1=O | 25.6 µM (inactive) | 60.3 µM (inactive) | 39.4 µM (inactive) | 53.3 µM (inactive) | 32.1 µM (inactive) | 44.2 µM | 24.7 µM (inactive) | 31.9 µM (inactive) | 38.4 µM (inactive) | 26.9 µM (inactive) | 19.8 µM (inactive) | 25.8 µM (inactive) |  | 14.1 µM (inactive) | 48.8 µM (inactive)
7 | O=S(=O)(c1cccc(N=C=S)c1)c1cccc(N=C=S)c1 | > 10 µM (inactive) | 47 µM (inactive) | 21.8 µM (inactive) | 18.7 µM (inactive) | > 10 µM (inactive) | 18.3 µM | 18.2 µM (inactive) | 18.6 µM (inactive) | 20.4 µM (inactive) | 16 µM (inactive) | 4.85 µM (inactive) |  |  | 16.7 µM (inactive) | 19.2 µM (inactive)
8 | COc1ccccc1NC(=O)C1=C(C)NC(C)=C(C(=O)Nc2ccccc2OC)C1c1ccccc1[N+](=O)[O-] | 19.2 µM (inactive) | 41 µM (inactive) | 18.7 µM (inactive) | 19.7 µM (inactive) | 19.6 µM (inactive) | 14.3 µM | 19.8 µM (inactive) | 18.6 µM (inactive) | 19 µM (inactive) | 17.4 µM (inactive) | 14.3 µM (inactive) | 25.6 µM (inactive) |  | 13.1 µM (inactive) | 26.9 µM (inactive)
9 | Nc1ccc(C(=O)NN2C(=O)C(Cl)C2c2cc(Br)cc(Br)c2O)cc1 (stereo not drawn) | 14.7 µM (inactive) | 40.2 µM (inactive) | 16.8 µM (inactive) | 13.3 µM (inactive) | 12.8 µM (inactive) | 3.78 µM | 3.98 µM (inactive) | 5.74 µM (inactive) | 7.67 µM (inactive) | 8.3 µM (inactive) | 4.89 µM (inactive) | 24.2 µM (inactive) | 3.66 µM (inactive) | 6.75 µM (inactive) | 11.2 µM (inactive)
10 | COc1ccc2c3c1O[C@]1(C)C34CCN(C)C(C2)C42C=C[C@@]1(OC)c1c(O)ccc(O)c12 | > 100 µM (inactive) | > 100 µM (inactive) | > 100 µM (inactive) | > 100 µM (inactive) | > 100 µM (inactive) |  | > 100 µM (inactive) | > 100 µM (inactive) | > 100 µM (inactive) | 95.7 µM (inactive) | > 100 µM (inactive) | 59.3 µM (inactive) |  | > 100 µM (inactive) | > 100 µM (inactive)
11 | Cc1cc(Cl)ccc1NC(=O)CC/C(CC(=O)C(C)C)=N\NC(=O)C[n+]1ccccc1 | > 100 µM (inactive) | > 100 µM (inactive) | > 100 µM (inactive) | > 100 µM (inactive) | > 100 µM (inactive) | > 100 µM | > 100 µM (inactive) | > 100 µM (inactive) | > 100 µM (inactive) | > 100 µM (inactive) | > 100 µM (inactive) | > 100 µM (inactive) | > 100 µM (inactive) | > 100 µM (inactive) | > 100 µM (inactive)
12 | COc1ccc2c3c([nH]c2c1[N+](=O)[O-])C(C)N(C(=O)/C=C/c1ccccc1)CC3 (stereo not drawn) | 3.91 µM (inactive) | > 100 µM (inactive) | 21.5 µM (inactive) | > 100 µM (inactive) | 10.8 µM (inactive) | 5.71 µM | 1.7 µM (inactive) | 9.77 µM (inactive) | 3.83 µM (inactive) | 12.7 µM (inactive) | 2.64 µM (inactive) |  | 3.66 µM (inactive) | 2.9 µM (inactive) | 
13 | c1cnn(CN(Cn2cccn2)Cn2cccn2)c1 | > 100 µM (inactive) |  |  |  | > 100 µM (inactive) | > 100 µM | > 100 µM (inactive) | > 100 µM (inactive) | > 100 µM (inactive) | > 100 µM (inactive) | > 100 µM (inactive) | > 100 µM (inactive) | > 100 µM (inactive) | > 100 µM (inactive) | > 100 µM (inactive)
14 | CN(C)c1ccc2c(c1)C(=O)N(OS(=O)(=O)c1ccc([N+](=O)[O-])cc1)C2=O | 25.5 µM (inactive) | 25.4 µM (inactive) | 24.6 µM (inactive) | 19.7 µM (inactive) | 17.6 µM (inactive) | 33.2 µM | 27.2 µM (inactive) | 24.7 µM (inactive) | 25.6 µM (inactive) | 19.3 µM (inactive) |  | > 10 µM (inactive) | 22.4 µM (inactive) | 15 µM (inactive) | > 100 µM (inactive)
15 | Cc1cc(C)cc(Sc2c([N+](=O)[O-])ncn2C)c1 | 12.8 µM (inactive) | 16.9 µM (inactive) | 25 µM (inactive) | 20.8 µM (inactive) | 6.03 µM (inactive) |  | 14.9 µM (inactive) | 26.2 µM (inactive) | 14.2 µM (inactive) | 24 µM (inactive) | 5.79 µM (inactive) | 17.2 µM (inactive) | 25.9 µM (inactive) | 6.64 µM (inactive) | 23.8 µM (inactive)
